Experimental data published in patent publication US20250025443A1, “COMPOUNDS AND METHODS FOR TREATING CORONA VIRUSES” (CLEAR CREEK BIO, INC., priority 2021, published 2025).
Read-outs that look alike come from different tables or passages of the source.

Biological target: SARS-CoV-2 Papain-Like Protease (PLpro) (Severe acute respiratory syndrome coronavirus 2 (2019-nCoV) (SARS-CoV-2), UniProt P0DTD1)
Test: biochemical
Conditions: read-out: PLpro IC50
[1] = SARS-CoV-2 PLpro enzymatic fluorescence assay
[2] = PLpro enzymatic fluorescence assay, class symbols

| SMILES | IC50 [1] | IC50 [2] |
| --- | --- | --- |
| Cc1ccc(OCCN(C)C)cc1C(=O)NC1(c2cc(O)cc3ccccc23)CC1 [Compound 345, 5-(2-(Dimethylamino)ethoxy)-N-(1-(3-hydroxynaphthalen-1-yl)cyclopropyl)-2-methylbenzamide] | < 100 nM |  |
| Cc1ccc(OC[C@@H]2CCN2C)cc1C(=O)NC1(c2cc(-c3ccc(CN4CCCC4)s3)cc3ncccc23)CC1 [Compound 669, (S)-2-Methyl-5-((1-methylazetidin-2-yl)methoxy)-N-(1-(7-(5-(pyrrolidin-1-ylmethyl)thiophen-2-yl)quinolin-5-yl)cyclopropyl)benzamide] |  | < 100 nM |
| Cc1cc2cc(-c3ccccc3)[nH]c2cc1C(=O)NC1(c2cccc3ccccc23)CC1 [Compound 226, 5-Methyl-N-(1-(naphthalen-1-yl)cyclopropyl)-2-phenyl-1H-indole-6-carboxamide] | > 5000 nM |  |
| Cc1ccc(OCCN(C)C)cc1C(=O)NC1(c2cccc3[nH]c4ccccc4c23)CC1 [Compound 415, N-(1-(9H-Carbazol-4-yl)cyclopropyl)-5-(2-(dimethylamino)ethoxy)-2-methylbenzamide] | 100 to 1000 nM |  |
| Cc1ccc(OCC2CCN2C)cc1C(=O)NC1(c2cccc3ccccc23)COC1 (centres unmarked) [Compound 387, 2-Methyl-5-((1-methylazetidin-2-yl)methoxy)-N-(3-(naphthalen-1-yl)oxetan-3-yl)benzamide] | < 100 nM |  |
| Cc1cc(C2(NC(=O)c3cc(OCCN(C)C)ccc3C)CC2)c2ccccc2c1 [Compound 401, 5-(2-(Dimethylamino)ethoxy)-2-methyl-N-(1-(3-methylnaphthalen-1-yl)cyclopropyl)benzamide] | < 100 nM |  |
| Cc1ccc(N)cc1C(=O)NC(c1cccc2ccccc12)C(F)(F)F (centres unmarked) [Compound 183, 5-Amino-2-methyl-N-(2,2,2-trifluoro-1-(naphthalen-1-yl)ethyl)benzamide] | 1000 to 5000 nM |  |
| Cc1ccc(OCC(C)N)cc1C(=O)NC1(c2cc(-c3ccc(Cl)s3)cc3ccccc23)CC1 (centres unmarked) [Compound 502, 5-(2-Aminopropoxy)-N-(1-(3-(5-chlorothiophen-2-yl)naphthalen-1-yl)cyclopropyl)-2-methylbenzamide] |  | < 100 nM |
| CN[C@H](C)COc1ccc(C)c(C(=O)NC2(c3cc(OC)cc4ncccc34)CC2)c1 [Compound 573, (R)-N-(1-(7-Methoxyquinolin-5-yl)cyclopropyl)-2-methyl-5-(2-(methylamino)propoxy)benzamide] |  | < 100 nM |
| Cc1ccc(OC[C@@H]2CCN2C)cc1C(=O)NC1(c2cc(-c3cnn(C)c3)cc3ncccc23)CC1 [Compound 670, (S)-2-Methyl-N-(1-(7-(1-methyl-1H-pyrazol-4-yl)quinolin-5-yl)cyclopropyl)-5-((1-methylazetidin-2-yl)methoxy)benzamide] |  | < 100 nM |
| COc1cc(C2(NC(=O)c3cc(OC[C@@H]4CCN4CCF)ccc3C)CC2)c2cccnc2c1 [Compound 567, (S)-5-((1-(2-Fluoroethyl)azetidin-2-yl)methoxy)-N-(1-(7-methoxyquinolin-5-yl)cyclopropyl)-2-methylbenzamide] |  | < 100 nM |
| Cc1ccc(OC[C@@H]2CCN2C)cc1C(=O)NC1(c2cccc3nc(N(C)C)ccc23)CC1 [Compound 548, (S)-N-(1-(2-(Dimethylamino)quinolin-5-yl)cyclopropyl)-2-methyl-5-((1-methylazetidin-2-yl)methoxy)benzamide] | < 100 nM |  |
| Cc1ccc(OCC2CCN2C)cc1C(=O)NC1(c2cc(-c3cccs3)cc3ccccc23)CC1 (centres unmarked) [Compound 468, 2-Methyl-5-((1-methylazetidin-2-yl)methoxy)-N-(1-(3-(thiophen-2-yl)naphthalen-1-yl)cyclopropyl)benzamide] | < 100 nM |  |
| Cc1ccc(OCC2CCN2Cc2ccccc2)cc1C(=O)NC1(c2cccc3ccccc23)CC1 (centres unmarked) [Compound 330, 5-((1-Benzylazetidin-2-yl)methoxy)-2-methyl-N-(1-(naphthalen-1-yl)cyclopropyl)benzamide] | < 100 nM |  |
| [2H]C([2H])([2H])N1CC[C@H]1COc1ccc(C)c(C(=O)NC2(c3cc(OC)cc4ncccc34)CC2)c1 [Compound 732, (S)-N-(1-(7-Methoxyquinolin-5-yl)cyclopropyl)-2-methyl-5-((1-(methyl-d3)azetidin-2-yl)methoxy)benzamide] |  | < 100 nM |
| Cc1ccc(OCCN)cc1C(=O)N(C)C1(c2cccc3ccccc23)CC1 [Compound 211, 5-(2-Aminoethoxy)-N,2-dimethyl-N-(1-(naphthalen-1-yl)cyclopropyl)benzamide] | > 5000 nM |  |
| Cc1cc2c(cc1C(=O)NC1(c3cccc4ccccc34)CC1)NCCC2 [Compound 227, 6-Methyl-N-(1-(naphthalen-1-yl)cyclopropyl)-1,2,3,4-tetrahydroquinoline-7-carboxamide] | 100 to 1000 nM |  |
| Cc1ncc(OCCN(C)C)cc1C(=O)NC1(c2cccc3ccccc23)CC1 [Compound 275, 5-(2-(Dimethylamino)ethoxy)-2-methyl-N-(1-(naphthalen-1-yl)cyclopropyl)nicotinamide] | 1000 to 5000 nM |  |
| C=C(C)c1cc(C2(NC(=O)c3cc(OC[C@H](C)NC)ccc3C)CC2)c2cccnc2c1 [Compound 660, (S)-2-Methyl-5-(2-(methylamino)propoxy)-N-(1-(7-(prop-1-en-2-yl)quinolin-5-yl)cyclopropyl)benzamide] |  | < 100 nM |

| SMILES | IC50 [1] | IC50 [2] |
| --- | --- | --- |
| Cc1ccc(N)cc1C(=O)NC1(c2cccc3ccccc23)COC1 [Compound 191, 5-Amino-2-methyl-N-(3-(naphthalen-1-yl)oxetan-3-yl)benzamide] | 100 to 1000 nM |  |
| CC(c1cccc2ncccc12)N1CCC(C(=O)NCc2cccc(F)c2)CC1 (centres unmarked) [Compound 549, N-(3-Fluorobenzyl)-1-(1-(quinolin-5-yl)ethyl)piperidine-4-carboxamide] | > 5000 nM |  |
| Cc1ccc(OCCN(C)C)cc1C(=O)NC1(c2ccccc2Oc2ccccc2)CC1 [Compound 298, 5-(2-(Dimethylamino)ethoxy)-2-methyl-N-(1-(2-phenoxyphenyl)cyclopropyl)benzamide] | 1000 to 5000 nM |  |
| Cc1ccc(OC[C@@H]2CCN2)cc1C(=O)NC1(c2cc(-c3ncn4ccccc34)cc3ncccc23)CC1 [Compound 733, (S)-5-(Azetidin-2-ylmethoxy)-N-(1-(7-(imidazo[1,5-a]pyridin-1-yl)quinolin-5-yl)cyclopropyl)-2-methylbenzamide] |  | < 100 nM |
| Cc1ccc(-c2cc(C3(NC(=O)c4cc(OC[C@@H]5CCN5C)ccc4C)COC3)c3cccnc3c2)o1 [Compound 808] |  | < 100 nM |
| Cc1ccc(OCCN(C)C)cc1C(=O)NC1(c2cccc(C3=CCCC3)c2)CC1 [Compound 264, N-(1-(3-(Cyclopent-1-en-1-yl)phenyl)cyclopropyl)-5-(2-(dimethylamino)ethoxy)-2-methylbenzamide] | 1000 to 5000 nM |  |
| Cc1cc2cc(CNC(=O)OC(C)(C)C)[nH]c2cc1C(=O)NC1(c2cccc3ccccc23)CC1 [Compound 180, tert-Butyl((5-methyl-6-((1-(naphthalen-1-yl)cyclopropyl)carbamoyl)-1H-indol-2-yl)methyl)carbamate] | 100 to 1000 nM |  |
| Cc1cc2cc(CNCc3ccccc3)[nH]c2cc1C(=O)NC1(c2cccc3ccccc23)CC1 [Compound 229, 2-((Benzylamino)methyl)-5-methyl-N-(1-(naphthalen-1-yl)cyclopropyl)-1H-indole-6-carboxamide] | < 100 nM |  |
| CC(c1cccc2ccccc12)N1CCC(C(=O)NCc2cccc(F)c2)C1 (centres unmarked) [Compound 144, N-(3-Fluorobenzyl)-1-(1-(naphthalen-1-yl)ethyl)pyrrolidine-3-carboxamide] | > 5000 nM |  |
| Cc1ccc([N+](=O)[O-])cc1C(=O)NC(c1cccc2ccccc12)C1CCOCC1 (centres unmarked) [Compound 105, 2-Methyl-N-(naphthalen-1-yl(tetrahydro-2H-pyran-4-yl)methyl)-5-nitrobenzamide] | > 5000 nM |  |
| COc1ccc(C2(NC(=O)c3cc(OCCN(C)C)ccc3C)CC2)cc1 [Compound 271, 5-(2-(Dimethylamino)ethoxy)-N-(1-(4-methoxyphenyl)cyclopropyl)-2-methylbenzamide] | > 5000 nM |  |
| Cc1ccc(OC[C@@H]2CCN2C)cc1C(=O)NC1(c2cc(-c3ccoc3)cc3ncccc23)CC1 [Compound 655, (S)—N-(1-(7-(Furan-3-yl)quinolin-5-yl)cyclopropyl)-2-methyl-5-((1-methylazetidin-2-yl)methoxy)benzamide] |  | < 100 nM |
| C=Cc1cc(C2(NC(=O)c3cc(OC[C@@H]4CCN4C)ccc3C)CC2)c2ccc(C)nc2c1 [Compound 813, (S)-2-Methyl-N-(1-(2-methyl-7-vinylquinolin-5-yl)cyclopropyl)-5-((1-methylazetidin-2-yl)methoxy)benzamide] |  | < 100 nM |
| COc1cc(C2(NC(=O)c3cc(OCCN(C)C)ccc3C)CC2)c2ccccc2c1 [Compound 320, 5-(2-(Dimethylamino)ethoxy)-N-(1-(3-methoxynaphthalen-1-yl)cyclopropyl)-2-methylbenzamide] | < 100 nM |  |
| Cc1cc2cc(CN)[nH]c2cc1C(=O)NC(C)(C)c1cccc2ccccc12 [Compound 281] | > 5000 nM |  |
| CC#Cc1cc(C2(NC(=O)c3cc(OC[C@@H]4CCN4C)ccc3C)CC2)c2ccc(C)nc2c1 [Compound 824, (S)-2-Methyl-N-(1-(2-methyl-7-(prop-1-yn-1-yl)quinolin-5-yl)cyclopropyl)-5-((1-methylazetidin-2-yl)methoxy)benzamide] |  | < 100 nM |
| Cc1ccc(OCC2CCN2C)cc1C(=O)NC1(c2cccc3ccc(F)cc23)CC1 (centres unmarked) [Compound 444, N-(1-(7-Fluoronaphthalen-1-yl)cyclopropyl)-2-methyl-5-((1-methylazetidin-2-yl)methoxy)benzamide] |  | < 100 nM |
| Cc1ccc(OC[C@@H]2CCN2C)cc1C(=O)NC1(c2cc(-c3ccccc3)cc3ncccc23)CC1 [Compound 594, (S)-2-Methyl-5-((1-methylazetidin-2-yl)methoxy)-N-(1-(7-phenylquinolin-5-yl)cyclopropyl)benzamide] |  | < 100 nM |
| Cc1ccc(OCCN(C)C)cc1C(=O)NC1(c2cccc3ccccc23)CC1 [Compound 214, 5-(2-(Dimethylamino)ethoxy)-2-methyl-N-(1-(naphthalen-1-yl)cyclopropyl)benzamide] | < 100 nM |  |
